Results as given in patent publication US20210361598A1, “COMPOUNDS FOR PREVENTION AND TREATMENT OF POST-INTENSIVE CARE COGNITIVE DYSFUNCTION AND COGNITIVE DYSFUNCTION RESULTING FROM RESPIRATORY DISTRESS” (Abrexa Pharmaceuticals, Inc., priority 2020, published 2021).
Entries after “also recorded” stand apart in the source; their conditions may differ.

How the values were obtained:
[1] = test system: post-surgical cognitive dysfunction; conditions: cited from earlier work; for Effect on post-surgical cognitive dysfunction: literature reports, after surgery
[2] = test system: neonatal hypoxic-ischemic brain injury in p10 C57BL6 mice; experiment: Postmortem MRI volumetric measurement of lesion in neonatal HI mouse model; type: in vivo
Description: Postnatal day 10 mice were subjected to the modified Vanucci-Rice model of neonatal hypoxic-ischemic injury (permanent right common carotid artery ligation followed by 8% oxygen/balance nitrogen exposure) and then treatment started the same day by daily oral gavage with J147 at 10 mg/kg/day for 2 weeks after injury. Infarction volume, performance on functional tests of coordination, locomotion and memory, markers of neurogenesis, and apoptotic cell death were measured. Hypoxic-ischemic (HI) injury and J147 treatment: To induce HI injury, permanent right common carotid artery ligation was performed in p10 C57BL6 mice followed by 8% oxygen/balance nitrogen exposure for 45 min at 37° C. hypoxic chamber. From the day of HI injury, either J147 (10 mg/kg/day) or vehicle (corn oil, same volume) were once daily administered through oral gavage for a period of two weeks. Magnetic resonance imaging (MRI): […] A 3D rapid acquisition with refocused echoes sequence was used (TE/TR=40/2000 ms, RARE factor=8, 4 signal averages, FOV=16.0 mm×9.0 mm×18.0 mm, matrix size=128×72×144, native resolution≈125×125×125 um3, time=3 h). Volumetric measurements were performed using ROI editor software.

[3] = test system: neonatal hypoxic-ischemic brain injury in p10 C57BL6 mice; experiment: Rotarod test in HI mice; type: in vivo, mouse; conditions: 5 weeks after HI
Description: (§1) Postnatal day 10 mice were subjected to the modified Vanucci-Rice model of neonatal hypoxic-ischemic injury (permanent right common carotid artery ligation followed by 8% oxygen/balance nitrogen exposure) and then treatment started the same day by daily oral gavage with J147 at 10 mg/kg/day for 2 weeks after injury. Infarction volume, performance on functional tests of coordination, locomotion and memory, markers of neurogenesis, and apoptotic cell death were measured. Hypoxic-ischemic (HI) injury and J147 treatment: To induce HI injury, permanent right common carotid artery ligation was performed in p10 C57BL6 mice followed by 8% oxygen/balance nitrogen exposure for 45 min at 37° C. hypoxic chamber. From the day of HI injury, either J147 (10 mg/kg/day) or vehicle (corn oil, same volume) were once daily administered through oral gavage for a period of two weeks. […]

[4] = test system: neonatal hypoxic-ischemic brain injury in p10 C57BL6 mice; experiment: Y-maze spontaneous alternation test in HI mice; type: in vivo, mouse; conditions: 50 days after HI; p<0.001
Description: as §1

[5] = test system: neonatal hypoxic-ischemic brain injury in p10 C57BL6 mice; experiment: TTC staining infarct measurement in neonatal hypoxic-ischemic (HI) injury mouse model; type: in vivo
Description: Postnatal day 10 mice were subjected to the modified Vanucci-Rice model of neonatal hypoxic-ischemic injury (permanent right common carotid artery ligation followed by 8% oxygen/balance nitrogen exposure) and then treatment started the same day by daily oral gavage with J147 at 10 mg/kg/day for 2 weeks after injury. Infarction volume, performance on functional tests of coordination, locomotion and memory, markers of neurogenesis, and apoptotic cell death were measured. Hypoxic-ischemic (HI) injury and J147 treatment: To induce HI injury, permanent right common carotid artery ligation was performed in p10 C57BL6 mice followed by 8% oxygen/balance nitrogen exposure for 45 min at 37° C. hypoxic chamber. From the day of HI injury, either J147 (10 mg/kg/day) or vehicle (corn oil, same volume) were once daily administered through oral gavage for a period of two weeks. TTC staining: 24 h after HI injury, 2 mm coronal brain sections were immersed in 1% 2,3,5-Triphenyltetrazolium chloride (TTC) at 37° C. for 30 min. Images of individual sections were digitized and infarct area was measured with the ImageJ software. Injury volumes were calculated using [contralateral hemisphere volume-(ipsilateral hemisphere volume-lesion volume)]/contralateral hemisphere volume×100.

[6] = test system: neonatal hypoxic-ischemic brain injury in p10 C57BL6 mice; experiment: Neural precursor marker fluorescence staining in HI mice; type: in vivo, mouse
[7] = test system: neonatal hypoxic-ischemia (HI) in mice; experiment: NeuN+ area and TUNEL+ cell count in hippocampus of HI mice
Description: Neonatal hypoxic-ischemia (HI) was performed at P10 and daily 10 μg/g J147 was gavage-fed from P10 to P14.

[8] = test system: neonatal hypoxic-ischemic brain injury in p10 C57BL6 mice; experiment: Open field test in HI mice; type: in vivo, mouse; conditions: 4 days post HI
Description: as §1

[9] = test system: neonatal hypoxic-ischemic encephalopathy (HIE) in C57BL6 mice; experiment: TUNEL staining, dose dependency of apoptotic cell death in dentate gyrus, neonatal HIE mouse model; type: in vivo; conditions: n=6, HIE untreated 141.7+56.6
Description: C57BL6 mice were subjected to complete unilateral carotid blockage using cauterizer at P10 followed by 45 min hypoxic exposure at 8% O2, and this was followed by daily oral gavage delivery of J147 in a range of doses or vehicle at P10-P14. Then animals were sacrificed and processed for TUNEL staining. In sham group, very few TUNEL+ cells are observed in dentate gyrus (DG, 4.7+4.1/each). […] For 10 μg/g/day group and 25 μg/g/day group, 42.2+23 (p<0.001) and 31.7+21.4 (p<0.001) cells are found in DG (One-way ANOVA; n=6).

Cc1cccc([C@H](C)c2cnc[nH]2)c1C [Dexmedetomidine]
Effect on post-surgical cognitive dysfunction [1]: failed to show efficacy

COc1cccc(/C=N/N(C(=O)C(F)(F)F)c2ccc(C)cc2C)c1 [J147]
Ipsilateral hemisphere volume as percentage of contralateral hemisphere volume by MRI, area of brain injury (FIG. 3) ([2]; 50 days after hypoxia-ischemia injury, J147 10 mg/kg/day for 2 weeks, 10 mg/kg/day): reduced lesion size; also recorded: substantial reduction of effect compared with HI; also recorded: almost entirely reduces the area of brain injury | MRI reduction in infarction volume, HIJ mice compared with untreated HI mice ([2]; MRI measurements at 50 days): ~50% | MRI imaging reduction in lesion size ([2]; adult mice, two weeks of J147 treatment 10 mg/kg/day oral gavage, p<0.001): 88% | Performance in the rotarod test [3]: significant improvement | Rotarod test performance, improvement ([3]; chronic, J147 treatment group): about 25% | Y-maze spatial learning task, improvement compared to HI controls [4]: 33% | Area of brain injury / lesion size by TTC staining (FIG. 2) ([5]; 24 hours after HI injury, J147 10 mg/kg/day oral gavage, 10 mg/kg/day): reduced lesion size; also recorded: reduced areal extent of injury; also recorded: significantly reduces the area of brain injury | Infarct size as measured by TTC staining, reduction relative to HI controls ([5]; one day of J147 treatment, 10 mg/kg/day oral gavage, 24 h after HI injury, p<0.001): 48% | Tbr2-positive cells ([6]; at one week after injury): significant increase | Nestin-positive cells ([6]; one day and one week after injury): increased | NeuN+ area in hippocampus ([7]; HI+J147, daily 10 μg/g gavage P10 to P14, SH 0.52, HI 0.32, p=0.0433): 0.45 mm2/section | TUNEL+ apoptotic cells in hippocampus ([7]; HI+J147, daily 10 μg/g gavage P10 to P14, SH 36.33, HI 372.67, p=0.0092): 208.17 /section | Reduction in apoptotic cell death in the hippocampus ([7]; J147 treatment, summary): roughly 50% | Performance in the open field test [8]: significant improvement | Open field test performance, improvement ([8]; J147 treatment group): about 25% | TUNEL+ cells in dentate gyrus ([9]; 0.5 μg/g/day oral gavage P10-P14, p>0.05): 123.2+51.5 cells | TUNEL+ cells in dentate gyrus ([9]; 1 μg/g/day oral gavage P10-P14, p>0.05): 107.8+42.7 cells | TUNEL+ cells in dentate gyrus ([9]; 5 μg/g/day oral gavage P10-P14, p<0.01): 55+23.6 cells | TUNEL+ cells in dentate gyrus ([9]; 10 μg/g/day oral gavage P10-P14, p<0.001): 42.2+23 cells | TUNEL+ cells in dentate gyrus ([9]; 25 μg/g/day oral gavage P10-P14, p<0.001): 31.7+21.4 cells

[Mg+2] [Magnesium]
Effect on post-surgical cognitive dysfunction [1]: failed to reduce post-surgical cognitive dysfunction

CCN(C)C(=O)Oc1cccc([C@H](C)N(C)C)c1 [Rivastigmine]
Safety in seriously ill patients after surgery ([1]; clinical investigation NCT00835159, terminated): too dangerous | Effect on post-surgical cognitive dysfunction [1]: no efficacy was observed

COc1cc2c(cc1OC)C(=O)C(CC1CCN(Cc3ccccc3)CC1)C2 (stereo not shown) [donepezil]
Effect on the overall cognitive index ([1]; patients with cognitive decline one year after cardiac surgery): had no effect
